Assay results as given in patent publication US5028601A, “Cephalosporin compounds and antibacterial agents” (Meiji Saika Kaisha, Ltd., priority 1987, dated 1991).
Read-outs that look alike come from different tables or passages of the source.

Assays:
Assay type in all cases: cell-based
Set-up in all cases: unit not given here
[1] = tested on: Staphylococcus aureus 209P JC-1; experiment: Minimum growth inhibitory concentration, Staphylococcus aureus 209P JC-1
[2] = tested on: Enterobacter cloacae GN-471; experiment: Minimum growth inhibitory concentration, Enterobacter cloacae GN-471
[3] = tested on: Citrobacter freundii GN-346; experiment: Minimum growth inhibitory concentration, Citrobacter freundii GN-346
Escherichia coli No. 255 = experiment: Minimum growth inhibitory concentration, Escherichia coli No. 255
[4] = tested on: Serratia marcescens No. 1; experiment: Minimum growth inhibitory concentration, Serratia marcescens No. 1
[5] = tested on: Pseudomonas aeruginosa E-2; experiment: Minimum growth inhibitory concentration, Pseudomonas aeruginosa E-2
[6] = tested on: Staphylococcus aureus Smith (1); experiment: Minimum growth inhibitory concentration, Staphylococcus aureus Smith (1)
Proteus vulgaris GN-76 = experiment: Minimum growth inhibitory concentration, Proteus vulgaris GN-76
[7] = tested on: Pseudomonas aeruginosa IAM-1007; experiment: Minimum growth inhibitory concentration, Pseudomonas aeruginosa IAM-1007
[8] = tested on: Klebsiella pneumoniae GN-69; experiment: Minimum growth inhibitory concentration, Klebsiella pneumoniae GN-69
Proteus rettgeri GN-624 = experiment: Minimum growth inhibitory concentration, Proteus rettgeri GN-624
Escherichia coli No. 29 = experiment: Minimum growth inhibitory concentration, Escherichia coli No. 29
[9] = tested on: Pseudomonase cepacia M-0527; experiment: Minimum growth inhibitory concentration, Pseudomonase cepacia M-0527
[10] = tested on: Pseudomonas aeruginosa M-0148; experiment: Minimum growth inhibitory concentration, Pseudomonas aeruginosa M-0148
[11] = tested on: Bacillus subtilis ATCC6633; experiment: Minimum growth inhibitory concentration, Bacillus subtilis ATCC6633
[12] = Staphylococcus aureus 209P JC-1
[13] = Staphylococcus aureus Smith (1)
[14] = Pseudomonas aeruginosa IAM-1007

| SMILES | Minimum Growth Inhibitory Concentration [1, 12] | Minimum Growth Inhibitory Concentration ([2]; Enterobacter cloacae GN-471) | Minimum Growth Inhibitory Concentration ([3]; Citrobacter freundii GN-346) | Minimum Growth Inhibitory Concentration (Escherichia coli No. 255) | Minimum Growth Inhibitory Concentration ([4]; Serratia marcescens No. 1) | Minimum Growth Inhibitory Concentration ([5]; Pseudomonas aeruginosa E-2) | Minimum Growth Inhibitory Concentration [6, 13] | Minimum Growth Inhibitory Concentration (Proteus vulgaris GN-76; Proteus vulgaris GN-76) | Minimum Growth Inhibitory Concentration [7, 14] | Minimum Growth Inhibitory Concentration ([8]; Klebsiella pneumoniae GN-69) | Minimum Growth Inhibitory Concentration (Proteus rettgeri GN-624; Proteus rettgeri GN-624) | Minimum Growth Inhibitory Concentration (Escherichia coli No. 29) | Minimum Growth Inhibitory Concentration [9] | Minimum Growth Inhibitory Concentration ([10]; Pseudomonas aeruginosa M-0148) | Minimum Growth Inhibitory Concentration ([11]; Bacillus subtilis ATCC6633) | further results |
| --- | --- | --- | --- | --- | --- | --- | --- | --- | --- | --- | --- | --- | --- | --- | --- | --- |
| Nc1nc(/C(=N/OCc2cc(=O)c(O)c[nH]2)C(=O)N[C@@H]2C(=O)N3C(C(=O)[O-])=C(C[n+]4ccccc4)CS[C@H]23)cs1 [A, reference compound] | 3.13 | 3.13 | 25 | 1.56 | 0.20 | 3.13 | 3.13 | 0.20 | 3.13 | 0.20 | 12.5 | 0.20 | 0.39 | 25 | 1.56 | – |
| CC(C)(O/N=C(\C(=O)N[C@@H]1C(=O)N2C(C(=O)[O-])=C(C[n+]3ccccc3)CS[C@H]12)c1csc(N)n1)C(=O)O [B, Ceftazidime, reference compound] | – | – | – | – | – | – | – | – | – | – | – | 0.20 | 0.78 | – | – | Minimum Growth Inhibitory Concentration [1]: 3.13; Minimum Growth Inhibitory Concentration [2]: 3.13; Minimum Growth Inhibitory Concentration [3]: 50; Minimum Growth Inhibitory Concentration [4]: < 0.025; Minimum Growth Inhibitory Concentration [5]: 1.56; Minimum Growth Inhibitory Concentration [6]: 3.13; Minimum Growth Inhibitory Concentration (Proteus vulgaris GN-76): 0.05; Minimum Growth Inhibitory Concentration [7]: 1.56; Minimum Growth Inhibitory Concentration [8]: 0.10; Minimum Growth Inhibitory Concentration (Proteus rettgeri GN-624): 0.39; Minimum Growth Inhibitory Concentration [10]: 3.13; Minimum Growth Inhibitory Concentration [11]: 6.25 |
| C[n+]1ccc(SCC2=C(C(=O)[O-])N3C(=O)[C@@H](NC(=O)/C(=N\OCc4cc(=O)c(O)cn4O)c4csc(N)n4)[C@H]3SC2)cc1 [Example 1, (6R,7R)-7-[(Z)-2-(2-Aminothiazole-4-yl)-2-(1,5-dihydroxy-4-pyridone-2-yl)methoxyiminoacetamido]-3-(1-methylpyridinium-4-yl)thiomethyl-ceph-3em-4-carboxylate] | 3.13 | 1.56 | 12.5 | 0.10 | 0.05 | 0.05 | 3.13 | 0.05 | 0.10 | < 0.025 | 0.10 | 0.05 | < 0.025 | 0.20 | 12.5 | – |
| Nc1nc(/C(=N/OCc2cc(=O)c(O)cn2O)C(=O)N[C@@H]2C(=O)N3C(C(=O)[O-])=C(CSc4cc[n+](CCO)cc4)CS[C@H]23)cs1 [Example 3, (6R,7R)-7-[(Z)-2-(2 Aminothiazole-4-yl)-2-(1,5-dihydroxy-4-pyridone-2-yl)methoxyiminoacetamido]-3-[1-(2-hydroxyethyl)pyridinium-4-yl]thiomethyl-ceph-3-em-4-carboxylate] | 3.13 | 1.56 | 6.25 | 0.20 | 0.10 | 0.05 | 6.25 | 0.05 | 0.10 | 0.05 | 0.10 | 0.05 | < 0.025 | 0.20 | 12.5 | – |
| C[n+]1ccc(SCC2=C(C(=O)[O-])N3C(=O)[C@@H](NC(=O)/C(=N\OCc4cc(=O)c(O)cn4O)c4csc(N)n4)[C@H]3SC2)c2c1CCC2 [Example 4] | 3.13 | 0.78 | 1.56 | 0.20 | 0.10 | 0.10 | 6.25 | < 0.025 | 0.10 | 0.10 | 0.20 | < 0.025 | < 0.025 | 0.10 | 12.5 | – |
| Cn1c(SCC2=C(C(=O)O)N3C(=O)[C@@H](NC(=O)/C(=N\OCc4cc(=O)c(O)cn4O)c4csc(N)n4)[C@H]3SC2)nnc(O)c1=O [Example 9, (6R,7R)-7-[(Z)-2-(2-Aminothiazole-4-yl)-2-(1,5-dihydroxy-4-pyridone-2-yl)methoxyiminoacetamido]-3-(4,5-dihydro-4-methyl 5-oxo-6-hydroxy-1,2,4-triazine-3-yl)thiomethyl-ceph-3-em-4-carboxylic acid] | 6.25 | 3.13 | 3.13 | 0.20 | 0.05 | 0.05 | 12.5 | < 0.025 | 0.39 | < 0.025 | 0.20 | < 0.025 | < 0.025 | 0.39 | 12.5 | – |
| Nc1nc(/C(=N/OCc2cc(=O)c(O)cn2O)C(=O)N[C@@H]2C(=O)N3C(C(=O)[O-])=C(C[n+]4ccccc4)CS[C@H]23)cs1 [Example 14, (6R,7R)-7-[(Z)-2-(2-Aminothiazole-4-yl)-2-(1,5-dihydroxy-4-pyridone-2-yl)methoxyiminoacetamido]-3-pyridiniummethyl-ceph-3-em-4-carboxylate] | 6.25 | 3.13 | 6.25 | 0.78 | 0.10 | 0.10 | 6.25 | 0.20 | 0.39 | 0.10 | 3.13 | 0.10 | < 0.025 | 0.78 | 12.5 | – |
